Laboratory results: patent US9732087B2, “Diamino-pyridine, pyrimidine, and pyridazine modulators of the histamine H4 receptor” (JANSSEN PHARMACEUTICA NV, priority 2008, dated 2017)

The molecules below were run against human H4 receptor (Homo sapiens (Human), UniProt Q9H3N8) (assay: Binding assay on recombinant human histamine H4 receptor ([3H]histamine competition, SK-N-MC cell membranes)). Conditions: membranes harvested with cell harvester; [3H]histamine 10 nM; average of results; read-out: Cell Harvester Ki.
Sequence of human H4 receptor (Q9H3N8 whole entry): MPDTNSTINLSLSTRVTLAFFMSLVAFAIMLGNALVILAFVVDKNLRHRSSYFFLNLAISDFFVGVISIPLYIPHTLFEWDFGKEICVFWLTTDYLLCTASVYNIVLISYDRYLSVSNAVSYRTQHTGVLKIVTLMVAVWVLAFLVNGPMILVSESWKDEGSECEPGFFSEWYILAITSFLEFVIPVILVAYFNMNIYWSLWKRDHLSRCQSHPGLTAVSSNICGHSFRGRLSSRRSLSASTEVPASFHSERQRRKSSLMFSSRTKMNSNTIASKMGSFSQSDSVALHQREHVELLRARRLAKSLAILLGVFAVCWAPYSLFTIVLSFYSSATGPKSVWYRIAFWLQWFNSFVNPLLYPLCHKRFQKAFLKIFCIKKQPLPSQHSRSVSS
Summary of the method: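 Scintillation counting of filter-bound [3H]histamine after rapid harvesting on 0.5% PEI-treated GF/C filters with ice-cold Tris/EDTA washes. Receptor source: 30,000 g membrane pellets of SK-N-MC cells stably or transiently expressing human H4. Values shown as '>' are the top concentration tested.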
`COCCNc1nccc(N2C[C@H]3CCN[C@H]3C2)n1` [Example 140, 4-[(3aR,6aR)-Hexahydropyrrolo[3,4-b]pyrrol-5(1H)-yl]-N-(2-methoxyethyl)pyrimidin-2-amine] showed a Ki of 135 nM. With `C[C@@H](Nc1nccc(N2C[C@H]3CCN[C@H]3C2)n1)c1ccccc1` [Example 141, 4-[(3aR,6aR)-Hexahydropyrrolo[3,4-b]pyrrol-5(1H)-yl]-N-[(1R)-1-phenylethyl]pyrimidin-2-amine] the Ki was 2320 nM. Work on `Fc1ccc(CNc2nccc(N3C[C@H]4CCN[C@H]4C3)n2)cc1` [Example 142, N-(4-Fluorobenzyl)-4-[(3aR,6aR)-hexahydropyrrolo[3,4-b]pyrrol-5(1H)-yl]pyrimidin-2-amine] yielded a Ki of 7090 nM. `c1cc(N2C[C@H]3CCN[C@H]3C2)nc(NC2CC2)n1` [Example 143, N-Cyclopropyl-4-[(3aR,6aR)-hexahydropyrrolo[3,4-b]pyrrol-5(1H)-yl]pyrimidin-2-amine] showed a Ki of 267 nM. `COc1ccc(CNc2nccc(N3CCNCC3)n2)cc1` [Example 144, N-(4-Methoxybenzyl)-4-piperazin-1-ylpyrimidin-2-amine] gave a Ki of 2530 nM. With `CN[C@H]1CCN(c2ccnc(NC3CC3)n2)C1` [Example 145, N-Cyclopropyl-4-[(3S)-3-(methylamino)pyrrolidin-1-yl]pyrimidin-2-amine] the Ki was 923 nM. In the case of `N[C@H]1CCN(c2ccnc(NC3CC4CCC3C4)n2)C1` (stereo partly drawn) [Example 146, 4-[(3S)-3-Aminopyrrolidin-1-yl]-N-bicyclo[2.2.1]hept-2-ylpyrimidin-2-amine], the Ki is reported as 34.1 nM. `CNC1CN(c2ccnc(NC3CC4CCC3C4)n2)C1` (stereo not drawn) [Example 147, N-Bicyclo[2.2.1]hept-2-yl-4-[3-(methylamino)azetidin-1-yl]pyrimidin-2-amine] showed a Ki of 6.66 nM. `N[C@H]1CCN(c2ccnc(NCC3CCCC3)n2)C1` [Example 149, 4-[(3S)-3-Aminopyrrolidin-1-yl]-N-(cyclopentylmethyl)pyrimidin-2-amine] was tested, and the Ki was 23.8 nM. `N[C@@H]1CCN(c2ccnc(NCCCC(F)(F)F)n2)C1` [Example 150, 4-[(3R)-3-Aminopyrrolidin-1-yl]-N-(4,4,4-trifluorobutyl)pyrimidin-2-amine] gave a Ki of 29.7 nM. With `CC(C)(CO)CNc1nccc(N2CC(N)C2)n1` [Example 151, 3-{[4-(3-Aminoazetidin-1-yl)pyrimidin-2-yl]amino}-2,2-dimethylpropan-1-ol] the Ki was 1460 nM. With `CN[C@H]1CCN(c2ccnc(NCCCO)n2)C1` [Example 152, 3-({4-[(3S)-3-(Methylamino)pyrrolidin-1-yl]pyrimidin-2-yl}amino)propan-1-ol] the Ki was 2300 nM. Molecule `CC(C)(CO)CNc1nccc(N2CC[C@@H](N)C2)n1` [Example 153, 3-({4-[(3R)-3-Aminopyrrolidin-1-yl]pyrimidin-2-yl}amino)-2,2-dimethylpropan-1-ol] has a Ki of 43.6 nM. `N[C@@H]1CCN(c2ccnc(NCCCO)n2)C1` [Example 154, 3-({4-[(3R)-3-Aminopyrrolidin-1-yl]pyrimidin-2-yl}amino)propan-1-ol] showed a Ki of 204 nM. With `NC1CN(c2ccnc(NCCCO)n2)C1` [Example 155, 3-{[4-(3-Aminoazetidin-1-yl)pyrimidin-2-yl]amino}propan-1-ol] the Ki was 745 nM. In the case of `Cc1ccc(CNc2nccc(N3CCNCC3)n2)cc1` [Example 156, N-(4-Methylbenzyl)-4-piperazin-1-ylpyrimidin-2-amine], the Ki is reported as 413 nM. In the case of `c1ccc(CNc2nccc(N3CCNCC3)n2)nc1` [Example 157, 4-Piperazin-1-yl-N-(pyridin-2-ylmethyl)pyrimidin-2-amine], the Ki is reported as 2140 nM. Work on `CN[C@H]1CCN(c2ccnc(NCC(C)(C)CO)n2)C1` [Example 158, 2,2-Dimethyl-3-({4-[(3S)-3-(methylamino)pyrrolidin-1-yl]pyrimidin-2-yl}amino)propan-1-ol] yielded a Ki of 3490 nM. Molecule `N[C@H]1CCN(c2ccnc(NC3CCCC3)n2)C1` [Example 160, 4-[(3S)-3-Aminopyrrolidin-1-yl]-N-cyclopentylpyrimidin-2-amine] has a Ki of 86.7 nM. `CN1CCN(c2ccnc(NCCCO)n2)CC1` [Example 161, 3-{[4-(4-Methylpiperazin-1-yl)pyrimidin-2-yl]amino}propan-1-ol] showed a Ki of 1300 nM. Molecule `Cc1ccc(CNc2nccc(N3CCN(C)CC3)n2)cc1` [Example 163] has a Ki of 278 nM. `CSCCNc1nccc(N2CCN(C)CC2)n1` [Example 164, 4-(4-Methylpiperazin-1-yl)-N-[2-(methylsulfanyl)ethyl]pyrimidin-2-amine] showed a Ki of 36.2 nM. With `CN1CCN(c2ccnc(NCc3ccccc3)n2)CC1` [Example 165, N-Benzyl-4-(4-methylpiperazin-1-yl)pyrimidin-2-amine] the Ki was 732 nM. `CC(C)(CO)CNc1nccc(N2CCNCC2)n1` [Example 166, 2,2-Dimethyl-3-[(4-piperazin-1-ylpyrimidin-2-yl)amino]propan-1-ol] showed a Ki of over 10000 nM. For `CN[C@@H]1CCN(c2ccnc(NCCCO)n2)C1` [Example 167, 3-({4-[(3R)-3-(Methylamine)pyrrolidin-1-yl]pyrimidin-2-yl}amino)propan-1-ol], the Ki was 34.9 nM. Molecule `C[C@@H]1[C@@H](Nc2nccc(N3CCN(C)CC3)n2)C[C@H]2C[C@@H]1C2(C)C` [Example 168, 4-(4-Methylpiperazin-1-yl)-N-[(1S,2S,3S,5R)-2,6,6-trimethylbicyclo[3.1.1]hept-3-yl]pyrimidin-2-amine] has a Ki of 483 nM. `CN[C@@H]1CCN(c2ccnc(NCC(C)(C)CO)n2)C1` [Example 169, 2,2-Dimethyl-3-({4-[(3R)-3-(methylamino)pyrrolidin-1-yl]pyrimidin-2-yl}amino)propan-1-ol] showed a Ki of 9.67 nM. For `CN[C@@H]1CCN(c2ccnc(NCc3ccc(C)cc3)n2)C1` [Example 170, 4-[(3R)-3-(Methylamino)pyrrolidin-1-yl]-N-(4-methylbenzyl)pyrimidin-2-amine], the Ki was 144 nM. With `CNC1CN(c2ccnc(NCC(C)C)n2)C1` [Example 171, 4-[3-(Methylamino)azetidin-1-yl]-N-(2-methylpropyl)pyrimidin-2-amine] the Ki was 3.89 nM. Work on `CNC1CN(c2ccnc(NC3CCCC3)n2)C1` [Example 172, N-Cyolopentyl-4-[3-(methylamino)azetidin-1-yl]pyrimidin-2-amine] yielded a Ki of 13.7 nM. `CN1CCN(c2ccnc(NCCc3ccccc3)n2)CC1` [Example 173, 4-(4-Methylpiperazin-1-yl)-N-(2-phenylethyl)pyrimidin-2-amine] gave a Ki of 745 nM. Molecule `CN[C@@H]1CCN(c2ccnc(NCc3ccccc3)n2)C1` [Example 174, N-Benzyl-4-[(3R)-3-(methylamine)pyrrolidin-1-yl]pyrimidin-2-amine] has a Ki of 19.1 nM. Molecule `C[C@@H](Nc1nccc(N2CC[C@@H](N)C2)n1)c1ccccc1` [Example 175, 4-[(3R)-3-Aminopyrrolidin-1-yl]-N-[(1R)-1-phenylethyl]pyrimidin-2-amine] has a Ki of 816 nM. Work on `CN[C@@H]1CCN(c2ccnc(NCc3ccc(OC)cc3)n2)C1` [Example 176, N-(4-Methoxybenzyl)-4-[(3R)-30(methylamino)pyrrolidin-1-yl]pyrimidin-2-amine] yielded a Ki of 458 nM. With `CC(C)(O)CNc1nccc(N2CCNCC2)n1` [Example 177, 2-Methyl-1-[(4-piperazin-1-ylpyrimidin-2-yl)amino]propan-2-ol] the Ki was 523 nM. `CNC1CN(c2ccnc(NCc3ccc(F)cc3)n2)C1` [Example 178, N-(4-Fluorobenzyl)-4-[3-(methylamino)azetidin-1-yl]pyrimidin-2-amine] showed a Ki of 243 nM. In the case of `N[C@@H]1CCN(c2ccnc(NCc3ccccc3)n2)C1` [Example 179, 4-[(3R)-3-Aminopyrrolidin-1-yl]-N-benzylpyrimidin-2-amine], the Ki is reported as 788 nM. `CN[C@@H]1CCN(c2ccnc(N[C@H](C)c3ccccc3)n2)C1` [Example 180, 4-[(3R)-3-(Methylamino)pyrrolidin-1-yl]-N-[(1R)-1-phenylethyl]pyrimidin-2-amine] was tested, and the Ki was 116 nM. Work on `N[C@@H]1CCN(c2ccnc(NC3CCCCC3)n2)C1` [Example 181, 4-[(3R)-3-Aminopyrrolidin-1-yl]-N-cyclohexylpyrimidin-2-amine] yielded a Ki of 9.07 nM. `CNC1CN(c2ccnc(NCCOC)n2)C1` [Example 182, N-(2-Methoxyethyl)-4-[3-(methylamino)azetidin-1-yl]pyrimidin-2-amine] was tested, and the Ki was 45.4 nM. `CN[C@@H]1CCN(c2ccnc(NCCc3ccccc3)n2)C1` [Example 183, 4-[(3R)-3-(Methylamino)pyrrolidin-1-yl]-N-(2-phenylethyl)pyrimidin-2-amine] gave a Ki of 15.6 nM. Molecule `CN[C@@H]1CCN(c2ccnc(NC3CC4CC(C3C)C4(C)C)n2)C1` (stereo partly drawn) [Example 184, 4-[(3R)-3-(Methylamino)pyrrolidin-1-yl]-N-[(1S,2S,3S,5R)-2,6,6-trimethylbicyolo[3.1.1]hept-3-yl]pyrimidin-2-amine] has a Ki of 1.58 nM. In the case of `COc1ccc(CNc2nccc(N3CC[C@@H](N)C3)n2)cc1` [Example 185, 4-[(3R)-3-Aminopyrrolidin-1-yl]-N-(4-methoxybenzyl)pyrimidin-2-amine], the Ki is reported as 1730 nM. `Cc1ccc(CNc2nccc(N3CC[C@@H](N)C3)n2)cc1` [Example 186, 4-[(3R)-3-Aminopyrrolidin-1-yl]-N-(4-methylbenzyl)pyrimidin-2-amine] was tested, and the Ki was 691 nM. With `c1cc(N2CCNCC2)nc(NCC2CCCC2)n1` [Example 187, N-(Cyclopentylmethyl)-4-piperazin-1-ylpyrimidin-2-amine] the Ki was 71.5 nM. `CN[C@@H]1CCN(c2ccnc(N[C@H]3C[C@H]4CC[C@]3(C)C4(C)C)n2)C1` [Example 190, 4-[(3R)-3-(Methylamino)pyrrolidin-1-yl]-N-[(1R,2S,4R)-1,7,7-trimethylbicyclo[2.2.1]hept-2-yl]pyrimidin-2-amine] showed a Ki of 1.68 nM. Molecule `CN[C@@H]1CCN(c2ccnc(NCC3CCCCC3)n2)C1` [Example 191, N-(Cyclohexylmethyl)-4-[(3R)-3-(methylamino)pyrrolidin-1-yl]pyrimidin-2-amine] has a Ki of 3.58 nM. `CN[C@@H]1CCN(c2ccnc(NC3CCCCC3)n2)C1` [Example 192, N-Cyclohexyl-4-[(3R)-3-(methylamino)pyrrolidin-1-yl]pyrimidin-2-amine] was tested, and the Ki was 2.42 nM.
